Experimental data published in patent US12258561B2, “Compositions and methods to promote bone formation and their uses including for the treatment of cancer” (THE RESEARCH FOUNDATION FOR THE STATE UNIVERSITY OF NEW YORK, priority 2014, dated 2025).
Entries after “also recorded” stand apart in the source; their conditions may differ.

Assays:
[1] = test system: MSC cultures induced to become osteoblasts; experiment: Osteogenesis: mineral formation in MSC with osteoinduction media (alizarin red-S staining); format: cell-based, human
Excerpt: Methods: Human Bone Marrow was Collected from Consenting Adult Patients undergoing either an elective primary proximal femoral total hip arthroplasty or elective primary distal femoral total knee arthroplasty (n=6, mean age 65) as a part of an IRB approved study. Human MSC were derived from the adherent fraction of cells derived from each whole bone marrow aspirate collected, while the monocyte population was collected from the non-adherent fraction of the bone marrow. The monocyte fraction was enriched through sub-culture with 100-ng/mL recombinant human macrophage colony-stimulating factor (MCSF; Wyeth). In parallel experiments described below, the femurs from 3-week (n=10) and 16-week (n=20) old male mice were collected and then the bone marrow was flushed from the femur according to the following: A 21-gauge needle was inserted into the femoral intramedular canal after the removal of the proximal and distal ends of the femur. Media was then carefully passed through the proximal end of the femur, which forced the bone marrow to pass out of the bone. Finally, the bone marrow pellet was mechanically disassociated using an 18-gauge needle and then passed through a 70-μm mesh filter. These whole bone marrow aspirates were used to generate osteoclasts. Cells were maintained in Dulbecco's Modification of Eagle's Media (DMEM) containing 10% fetal calf serum (v/v) and 1% penicillin-streptomycin-glutamine (PSG; Cellgro, Mediatech). […] The responsible IACUC committee approved all of the animal studies described in this work.
Osteogenesis: Osteogenic potential in MSC was assayed by chemically inducing mineral formation. MSC from at least three human patients were seeded at 5×10^3 cells per well and allowed to become confluent and woven prior to the addition of osteo-induction media. Induction media consisted of DMEM containing 20% FCS (v/v) and 1% PSG supplemented with 25-μg/mL of acscorbic-2-phosphate (Sigma), 100-nM dexamethasone (Sigma) and the following dosing regimen of β-glycerophosphate (BGP; Sigma): 1× media change with 5-mM BGP, 1× media change with 10-mM BGP and 1× media change with 20-mM of BGP. Met5-ligand (0-, [5-μM] 2.87-, or [50-μM] 28.7-μg; Sigma), naloxone (0-, 400-fg, 400-pg, 400-ng, 400-μg; Sigma) or naltrexone (0-, 378-fg, 378-pg, 378-ng, 378-μg; Sigma) was added as follows: 1) 1×, with the first addition of osteo-induction media, 2) 2×, with the first and second addition of osteo-induction media and 3) with each post-induction media change. […] After the appearance of mineral nodules, cells were fixed with 70% ice-cold EtOH (Sigma) and then stained using 40-mM alizarin red-S (pH 4.2, Sigma). Osteogenesis experiments were repeated at least twice for each patient.

[2] = test system: monocytes cultured to become osteoclasts; experiment: TRAP staining and assay of osteoclast number; format: cell-based, human, mouse
Experimental: TRAP Staining and the Assay of Osteoclast Number: Osteoclasts were derived from either an enriched population of human monocytes or from mouse non-enriched whole bone marrow aspirates. Three human patient bone marrow samples were assayed in parallel with samples collected from 3-week (n=10) mouse bone marrow. The monocyte fraction was stimulated to become osteoclasts by culturing 1×10^6 cells with 25-ng/mL of MCSF and 25-ng/mL of recombinant human or mouse RANK-ligand (R&D Systems) in the presence of the met5-ligand ([5-μM] 2.87-, or [50-μM] 28.7-μg; Sigma), naloxone (400-ng or 400-μg; Sigma) or naltrexone (378-ng or 378-μg; Sigma). Osteoclasts were stained with tartrate resistant acid phosphatase (TRAP; Sigma Leukocyte Acid Phosphatase Kit 387-A) and counted when cells stained TRAP-positive and had at least three nuclei. Estimates of osteoclast number were obtained by Cavalieri sampling and a modification of the fractionator technique.

[3] = test system: unicortical defect in mouse tibia; experiment: Opioid antagonist containing collagen implant in unicortical defect model, microCT; format: in vivo, C57BL/6 mice; details: 7 days after surgery
Excerpt: Implantation of Opioid Antagonist Containing Collagen Implant into a Unicortical Defect Model: Male 5-week old C57BL/6 mice (n=5 per treatment group for a total of 25 total animals) were used in this study. […] Unicortical defects were surgically administered through a small incision (approximately 3-mm) made just below the knee joint, located on the medial side of the tibia just below the tibial tuberosity on the tibial crest. In 5-weeks old male mice, the physeal plate is clearly visible and the drill bit was placed approximately 1-mm below this point. The drill-bit produces a unicortical defect with dimensions 300-μm diameter×1-mm depth. […] In parallel, a separate group of animals served as non-surgical controls. Mice were euthanized 7-days after surgery, hind limbs were collected and tibias were prepared for micro-CT (μCT) analysis.
(§1) MicroCT Analysis of Unicortical Defects: High-resolution images of the tibia were acquired with μCT imaging system (μT40; Scanco Medical). Tibias were scanned at 45-keV with an isotropic voxel size of 12-μm. An analysis region was selected from axial sections to include the entire unicortical defect bounded by the endosteal cortical wall. The volume corrected bone volume (bone volume/total volume; By/Tv), trabecular number (TbN) and trabecular thickness (TbTh) were calculated using the Scanco software.

[4] = test system: SaO52 osteosarcoma tumor cells; experiment: Assay of cell number (MTT), osteosarcoma cells; format: cell-based
Excerpt: (§2) Methods: Human bone marrow was collected from consenting adult patients undergoing either an elective primary proximal femoral total hip arthroplasty or elective primary distal femoral total knee arthroplasty (n=6, mean age 65) as a part of an IRB approved study. Human MSC were derived from the adherent fraction of whole bone marrow aspirates. Ewing's sarcoma tumor cells (RDES, Hs822 and Hs863) and SaOS2 osteosarcoma tumor cells were obtained from ATCC. Cells were maintained in Dulbecco's Modification of Eagle's Media (DMEM) containing 10% fetal calf serum (v/v) and 1% penicillin-streptomycin-glutamine (PSG; Cellgro, Mediatech).
(§3) Assay of Cell Number: Following the addition of 1-mM naloxone or 1-mM naltrexone, viable cell number was determined with the MTT assay. After 72-hours and 120-hours, MTT (5 mg/ml (w/v), Sigma) was added to each well, incubated for 2-hours, after which the cells lysed with 500-μl of DMSO (Sigma). MTT was measured at 570-nm and the effects of therapy on cell proliferation were determined by normalizing treated wells relative to mean values from non-treated wells: Fold change in cell number=100*[treated cells optical density/mean control optical density].

[5] = test system: Hs822t Ewing's sarcoma of bone tumor cells; experiment: Assay of cell number (MTT), Hs822t cells; format: cell-based
Excerpt: as §2, §3

[6] = test system: RDES Ewing's sarcoma of bone tumor cells; experiment: Assay of cell number (MTT), RDES cells; format: cell-based
Excerpt: as §2, §3

[7] = test system: unicortical defect in mouse tibia; experiment: Unicortical defect model, direct injection, microCT; format: in vivo, C57BL/6 mice; details: naloxone 1-mM or met5 50-μM
Experimental: Unicortical Defect Model: Male 3-week old C57BL/6 mice (n=5 per treatment group) were injected with met5, naloxone or naltrexone following the creation of a unicortical defect. Briefly, a small incision (approximately 3-mm) was made just below the knee joint, located on the medial side of the tibia just below the tibial tuberosity on the tibial crest. In young animals the physeal plate is clearly visible and the drill bit was placed approximately 1-mm below this point. The drill-bit produces a unicortical defect with dimensions 300-μm diameter×1-mm depth. A Hamilton Neuros RN 10-μL syringe with a 33-gauge blunt tip needle was used to inject 2-μL of met5 (28.7-μg), naloxone (400-μg) or naltrexone (378-μg) resuspended in saline directly into the unicortical defect at a rate no faster than approximately 0.1-μL per second. The left-limb tibias served as contra-lateral surgical controls, in which animals received a unicortical defect and 2-μL of saline was injected. Mice were euthanized 5-days after surgery, hind limbs were collected and tibias were fixed for immunofluorescence, TRAP staining and OTC associated bone growth.
as §1

[8] = collagen implant, 25-ng BMP2, 1-mM naltrexone or 1-mM naloxone
[9] = 50-μM met5 with collagen implant

O=C1CC[C@@]2(O)[C@H]3Cc4ccc(O)c5c4[C@@]2(CCN3CC2CC2)[C@H]1O5 [naltrexone]
mineral accumulation (red staining) ([1]; between 1-μM and 1-mM with osteoinduction media): increased mineral, but to a lesser extent than naloxone
osteoclast number (TRAP staining) ([2]; 1-mM): reduced osteoclast number substantially
osteoclast number (TRAP staining) ([2]; 1-μM): did not significantly reduce osteoclast number
Bv/Tv relative to non-surgical controls ([3]; collagen implant): increased relative to non-surgical controls
trabecular thickness (TbTh) relative to the control non-surgical group ([3]; collagen implant): increased within the defect significantly
Bv/Tv compared with the BMP2 treated group ([3]; collagen implant, 1-mM): no significant difference
increase in Bv/Tv relative to the PBS treated group [3, 8]: 39.2%
increase in Bv/Tv relative to the surgical control group [3, 8]: 63.5%
SaO52 osteosarcoma cell number relative to control cultures ([4]; 1-mM, seventy-two hours): decreased significantly
Hs822t tumor cell number relative to control cultures ([5]; 1-mM, seventy-two hours): decreased relative to the control cultures
RDES tumor cell number relative to control cultures ([6]; 1-mM, seventy-two hours): decreased significantly

Tyr-Gly-Gly-Phe-Met (YGGFM; printed: Tyr-Gly-Gly-Phe-Met) [met5, opioid growth factor (OGF or met-5 enkephalin), the native ligand for the OGFR]
mineral accumulation ([1]; 5-μM met5 added to osteoinduction media): no effect on mineral formation in culture; also recorded: no effect on mineral accumulation
mineral accumulation ([1]; 50-μM met5 added to osteoinduction media): no effect on mineral formation in culture; also recorded: decreased mineral accumulation slightly
osteoclast number (TRAP staining) ([2]; met5, relative to control osteoclast cultures): unaffected
bone healing [7]: no effect
Bv/Tv greater than the non-surgical control group [3, 9]: approximately 37%
fracture healing (Bv/Tv) compared with the surgical control group [3, 9]: not significantly different
trabecular thickness (TbTh) relative to the control non-surgical group ([3]; collagen implant): increased within the defect significantly
SaO52 osteosarcoma cell number ([4]; met5): had not effect on cell number
Hs822t tumor cell number ([5]; 50-μM of met5): significant increase
RDES tumor cell number ([6]; met5): no effect
